We go through three compounds from ChEMBL document CHEMBL1201862, “PubChem BioAssay data set” (2004).

Activity calls are given as the source filed them.

For experiment [1], the target named is Genome polyprotein (dengue virus type 2, UniProt P29990). Nature of the experiment: Dengue-2 NS5 methyltransferase inhibitors, primary screen, biochemical, confirmation dose response (AID 588689). The experiment is classed as functional.
For experiment [2], the target named is SRSF protein kinase 1 (Homo sapiens, UniProt Q96SB4). The experiment is classed as functional.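 Also: measured as one member of a kinome-wide kinase profiling panel.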
In experiment [3] the target is Casein kinase I isoform gamma-1 (Homo sapiens, UniProt Q9HCP0). The format is functional.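 Also: measured as the CSNK1G1 member of a kinome profiling panel.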
The target in experiment [4] is 3-phosphoinositide-dependent protein kinase 1 (Homo sapiens, UniProt O15530). The format is functional.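 Also: value comes from the Navigating the Kinome panel, PDPK1 member.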
Experiment [5] deals with Megakaryocyte-associated tyrosine-protein kinase (Homo sapiens, UniProt P42679). The format is functional.
Experiment [6] concerns the target Calcium/calmodulin-dependent protein kinase type II subunit beta (Homo sapiens, UniProt Q13554). The format is functional.
The target of experiment [7] is Maternal embryonic leucine zipper kinase (Homo sapiens, UniProt Q14680). The format is functional.
The target in experiment [8] is Tyrosine-protein kinase FRK (Homo sapiens, UniProt P42685). The experiment is classed as functional.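 Also: FRK tested as one member of a kinome panel.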
The target of experiment [9] is Platelet-derived growth factor receptor beta (Homo sapiens, UniProt P09619). The experiment is classed as functional.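 Also: value comes from a kinome panel, with PDGFRB tested as one panel member.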
Sequence of Platelet-derived growth factor receptor beta (P09619 whole entry): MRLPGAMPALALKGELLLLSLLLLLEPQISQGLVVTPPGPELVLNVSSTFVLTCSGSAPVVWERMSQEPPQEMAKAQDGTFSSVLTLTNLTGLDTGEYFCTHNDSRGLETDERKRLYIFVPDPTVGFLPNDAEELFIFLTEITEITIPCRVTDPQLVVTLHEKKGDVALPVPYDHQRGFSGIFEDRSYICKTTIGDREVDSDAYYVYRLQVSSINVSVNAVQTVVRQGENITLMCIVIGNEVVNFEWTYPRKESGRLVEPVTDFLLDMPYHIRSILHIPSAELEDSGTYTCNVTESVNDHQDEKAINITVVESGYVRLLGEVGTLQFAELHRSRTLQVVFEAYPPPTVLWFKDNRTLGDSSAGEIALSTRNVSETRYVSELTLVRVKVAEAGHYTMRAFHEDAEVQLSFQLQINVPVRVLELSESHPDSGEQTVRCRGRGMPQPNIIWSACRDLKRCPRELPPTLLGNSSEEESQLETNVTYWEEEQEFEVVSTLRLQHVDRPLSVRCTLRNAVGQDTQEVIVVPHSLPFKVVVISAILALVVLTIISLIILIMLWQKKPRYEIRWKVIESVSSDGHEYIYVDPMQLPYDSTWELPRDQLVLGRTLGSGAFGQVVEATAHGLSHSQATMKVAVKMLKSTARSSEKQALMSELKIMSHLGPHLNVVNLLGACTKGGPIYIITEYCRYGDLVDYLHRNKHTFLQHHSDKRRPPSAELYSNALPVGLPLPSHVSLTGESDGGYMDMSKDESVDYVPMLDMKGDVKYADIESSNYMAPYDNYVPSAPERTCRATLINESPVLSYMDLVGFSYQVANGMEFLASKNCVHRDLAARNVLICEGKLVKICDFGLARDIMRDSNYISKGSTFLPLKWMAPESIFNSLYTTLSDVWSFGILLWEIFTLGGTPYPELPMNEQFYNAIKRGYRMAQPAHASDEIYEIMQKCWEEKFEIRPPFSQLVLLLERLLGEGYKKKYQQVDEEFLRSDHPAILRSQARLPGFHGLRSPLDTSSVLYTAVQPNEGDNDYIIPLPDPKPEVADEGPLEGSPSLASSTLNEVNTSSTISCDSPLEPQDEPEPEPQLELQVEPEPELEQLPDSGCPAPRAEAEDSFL
For experiment [10], the target named is Casein kinase II subunit alpha (Homo sapiens, UniProt P68400). The format is functional.
Experiment [11] concerns the target Ribosomal protein S6 kinase beta-1 (Homo sapiens, UniProt P23443). The format is functional.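 Also: measured as one member of a kinome-wide profiling panel.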
The target of experiment [12] is Homeodomain-interacting protein kinase 2 (Homo sapiens, UniProt Q9H2X6). The experiment is classed as functional.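 Also: measured within a kinome-wide kinase profiling panel, HIPK2 being one panel member.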
Experiment [13] concerns the target Serine/threonine-protein kinase Nek4 (Homo sapiens, UniProt P51957). The experiment is classed as functional.
Experiment [14] has as its target Protein kinase C iota type (Homo sapiens, UniProt P41743). The experiment is classed as functional.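 Also: measured within a kinome-wide kinase panel, PRKCI as panel member.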
Experiment [15] has as its target Tyrosine-protein kinase receptor UFO (Homo sapiens, UniProt P30530). The experiment is classed as functional.
The target in experiment [16] is Serine/threonine-protein kinase PLK4 (Homo sapiens, UniProt O00444). The format is functional.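 Also: PLK4 measured as one member of a kinome-wide kinase profiling panel.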
Experiment [17] has as its target Testis-specific serine/threonine-protein kinase 1 (Homo sapiens, UniProt Q9BXA7). The experiment is classed as functional.
In experiment [18] the target is MAP kinase-interacting serine/threonine-protein kinase 2 (Homo sapiens, UniProt Q9HBH9). The format is functional.
Experiment [19] deals with cGMP-dependent protein kinase 1 (Homo sapiens, UniProt Q13976). The experiment is classed as functional.
Experiment [20] deals with Mitogen-activated protein kinase kinase kinase kinase 5 (Homo sapiens, UniProt Q9Y4K4). The experiment is classed as functional.
Experiment [21] deals with Serine/threonine-protein kinase pim-3 (Homo sapiens, UniProt Q86V86). The format is functional.
Experiment [22] deals with Casein kinase I isoform delta (Homo sapiens, UniProt P48730). The experiment is classed as functional.
Experiment [23] has as its target RAC-alpha serine/threonine-protein kinase (Homo sapiens, UniProt P31749). The format is functional.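 Also: AKT1 affinity measured as one member of a kinome-wide kinase profiling panel.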
Experiment [24] addresses Interleukin-1 receptor-associated kinase 4 (Homo sapiens, UniProt Q9NWZ3). The format is functional.
Experiment [25] concerns the target Tyrosine-protein kinase Fer (Homo sapiens, UniProt P16591). The experiment is classed as functional.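 Also: FER tested as one member of a kinome panel.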
In experiment [26] the target is Proto-oncogene tyrosine-protein kinase Src (Homo sapiens, UniProt P12931). The experiment is classed as functional.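 Also: SRC entry within a kinome-wide kinase profiling panel.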
Sequence of Proto-oncogene tyrosine-protein kinase Src (P12931 2-536 limits assumed): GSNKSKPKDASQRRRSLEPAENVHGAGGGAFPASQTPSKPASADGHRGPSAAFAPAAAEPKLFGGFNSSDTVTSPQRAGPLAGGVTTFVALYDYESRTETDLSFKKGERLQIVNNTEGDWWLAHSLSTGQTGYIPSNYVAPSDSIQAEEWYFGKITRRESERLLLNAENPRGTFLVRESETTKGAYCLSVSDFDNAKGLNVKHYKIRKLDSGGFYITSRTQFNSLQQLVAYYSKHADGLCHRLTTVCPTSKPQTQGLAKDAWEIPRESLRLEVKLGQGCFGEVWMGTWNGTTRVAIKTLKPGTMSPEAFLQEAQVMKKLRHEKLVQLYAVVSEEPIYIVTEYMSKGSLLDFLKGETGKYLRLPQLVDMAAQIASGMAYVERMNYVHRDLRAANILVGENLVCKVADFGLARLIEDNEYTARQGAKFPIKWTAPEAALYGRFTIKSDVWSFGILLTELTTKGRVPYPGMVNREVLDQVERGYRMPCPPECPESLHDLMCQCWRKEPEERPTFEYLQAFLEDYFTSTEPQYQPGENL
For experiment [27], the target named is Serine/threonine-protein kinase D2 (Homo sapiens, UniProt Q9BZL6). The format is functional.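 Also: measured against PRKD2 as one member of a kinome-wide kinase profiling panel.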
The target in experiment [28] is Phosphorylase b kinase gamma catalytic chain, liver/testis isoform (Homo sapiens, UniProt P15735). The format is functional.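 Also: PHKG2 measured as one member of a kinome-wide kinase panel.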
In experiment [29] the target is Homeodomain-interacting protein kinase 4 (Homo sapiens, UniProt Q8NE63). The experiment is classed as functional.
Experiment [30] has as its target Serine/threonine-protein kinase DCLK1 (Homo sapiens, UniProt O15075). The format is functional.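 Also: affinity for DCLK1 (listed as DCAMKL1) measured as one member of a kinome-wide kinase profiling panel.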
The target in experiment [31] is MAP kinase-activated protein kinase 5 (Homo sapiens, UniProt Q8IW41). The experiment is classed as functional.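 Also: measured as one member of a kinome panel.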
The target in experiment [32] is Tyrosyl-DNA phosphodiesterase 2 (Homo sapiens, UniProt O95551). The experiment can be described thus: human TDP2 enzyme inhibitors, dose response, biochemical, epi absorbance, IC50 (AID 743297).
Sequence of Tyrosyl-DNA phosphodiesterase 2 (O95551 whole entry): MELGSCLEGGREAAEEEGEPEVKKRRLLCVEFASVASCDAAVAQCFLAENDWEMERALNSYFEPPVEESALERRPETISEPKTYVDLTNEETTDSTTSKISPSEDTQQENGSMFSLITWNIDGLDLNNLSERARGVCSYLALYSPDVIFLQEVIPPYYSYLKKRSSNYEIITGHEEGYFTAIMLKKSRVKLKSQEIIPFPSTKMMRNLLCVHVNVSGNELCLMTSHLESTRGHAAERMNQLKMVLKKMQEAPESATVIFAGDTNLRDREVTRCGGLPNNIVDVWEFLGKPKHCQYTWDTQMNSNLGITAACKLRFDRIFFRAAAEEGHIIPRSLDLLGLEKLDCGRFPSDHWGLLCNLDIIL
In experiment [33] the target is T1, Replicative DNA helicase DnaB (Mycobacterium tuberculosis, UniProt P9WMR3).
T1 sequence (P9WMR3 whole entry): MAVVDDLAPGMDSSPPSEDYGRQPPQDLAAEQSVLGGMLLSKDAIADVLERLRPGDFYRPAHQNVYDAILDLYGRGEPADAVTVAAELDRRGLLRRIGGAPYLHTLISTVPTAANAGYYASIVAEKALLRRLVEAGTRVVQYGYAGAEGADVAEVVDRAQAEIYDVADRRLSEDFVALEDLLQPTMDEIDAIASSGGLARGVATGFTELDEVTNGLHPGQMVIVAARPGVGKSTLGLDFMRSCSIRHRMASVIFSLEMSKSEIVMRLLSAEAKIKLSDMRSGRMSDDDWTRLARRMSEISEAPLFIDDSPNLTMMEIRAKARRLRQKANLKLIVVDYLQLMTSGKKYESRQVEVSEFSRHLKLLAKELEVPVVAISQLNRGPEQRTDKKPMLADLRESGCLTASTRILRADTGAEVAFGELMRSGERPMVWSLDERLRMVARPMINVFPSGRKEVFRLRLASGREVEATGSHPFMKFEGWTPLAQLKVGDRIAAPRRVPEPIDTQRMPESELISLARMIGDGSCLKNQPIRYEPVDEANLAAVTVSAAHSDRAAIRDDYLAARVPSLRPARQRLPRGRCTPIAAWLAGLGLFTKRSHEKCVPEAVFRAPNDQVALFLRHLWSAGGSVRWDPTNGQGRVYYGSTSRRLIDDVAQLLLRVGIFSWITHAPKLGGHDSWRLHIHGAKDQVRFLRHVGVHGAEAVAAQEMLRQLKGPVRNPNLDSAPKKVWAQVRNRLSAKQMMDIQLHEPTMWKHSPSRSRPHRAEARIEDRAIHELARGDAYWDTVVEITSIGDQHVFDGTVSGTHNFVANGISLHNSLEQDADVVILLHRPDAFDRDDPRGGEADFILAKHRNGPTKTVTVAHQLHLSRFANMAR
The experiment can be described thus: DnaB intein splicing inhibitors, dose response, biochemical, cell-free fluorescence (AID 449749). The experiment is classed as functional.

Sequence of Calcium/calmodulin-dependent protein kinase type II subunit beta (Q13554 whole entry): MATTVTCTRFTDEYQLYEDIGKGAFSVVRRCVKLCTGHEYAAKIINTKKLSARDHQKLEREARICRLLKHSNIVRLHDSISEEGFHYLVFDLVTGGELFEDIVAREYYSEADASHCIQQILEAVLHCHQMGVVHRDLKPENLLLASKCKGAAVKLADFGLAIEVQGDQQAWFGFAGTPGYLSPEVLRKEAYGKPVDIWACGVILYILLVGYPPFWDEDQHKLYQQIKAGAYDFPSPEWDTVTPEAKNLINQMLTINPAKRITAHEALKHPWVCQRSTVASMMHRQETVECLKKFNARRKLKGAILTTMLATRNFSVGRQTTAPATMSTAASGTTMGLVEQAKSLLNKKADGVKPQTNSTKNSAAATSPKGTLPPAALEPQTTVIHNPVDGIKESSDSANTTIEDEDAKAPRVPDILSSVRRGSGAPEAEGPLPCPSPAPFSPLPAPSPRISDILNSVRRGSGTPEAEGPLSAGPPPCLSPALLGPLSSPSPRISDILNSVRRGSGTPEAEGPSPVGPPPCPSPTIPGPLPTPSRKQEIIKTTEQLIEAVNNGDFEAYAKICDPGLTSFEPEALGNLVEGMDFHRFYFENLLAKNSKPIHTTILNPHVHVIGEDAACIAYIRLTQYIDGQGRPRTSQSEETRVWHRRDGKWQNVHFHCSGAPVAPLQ
Sequence of Tyrosine-protein kinase receptor UFO (P30530 whole entry): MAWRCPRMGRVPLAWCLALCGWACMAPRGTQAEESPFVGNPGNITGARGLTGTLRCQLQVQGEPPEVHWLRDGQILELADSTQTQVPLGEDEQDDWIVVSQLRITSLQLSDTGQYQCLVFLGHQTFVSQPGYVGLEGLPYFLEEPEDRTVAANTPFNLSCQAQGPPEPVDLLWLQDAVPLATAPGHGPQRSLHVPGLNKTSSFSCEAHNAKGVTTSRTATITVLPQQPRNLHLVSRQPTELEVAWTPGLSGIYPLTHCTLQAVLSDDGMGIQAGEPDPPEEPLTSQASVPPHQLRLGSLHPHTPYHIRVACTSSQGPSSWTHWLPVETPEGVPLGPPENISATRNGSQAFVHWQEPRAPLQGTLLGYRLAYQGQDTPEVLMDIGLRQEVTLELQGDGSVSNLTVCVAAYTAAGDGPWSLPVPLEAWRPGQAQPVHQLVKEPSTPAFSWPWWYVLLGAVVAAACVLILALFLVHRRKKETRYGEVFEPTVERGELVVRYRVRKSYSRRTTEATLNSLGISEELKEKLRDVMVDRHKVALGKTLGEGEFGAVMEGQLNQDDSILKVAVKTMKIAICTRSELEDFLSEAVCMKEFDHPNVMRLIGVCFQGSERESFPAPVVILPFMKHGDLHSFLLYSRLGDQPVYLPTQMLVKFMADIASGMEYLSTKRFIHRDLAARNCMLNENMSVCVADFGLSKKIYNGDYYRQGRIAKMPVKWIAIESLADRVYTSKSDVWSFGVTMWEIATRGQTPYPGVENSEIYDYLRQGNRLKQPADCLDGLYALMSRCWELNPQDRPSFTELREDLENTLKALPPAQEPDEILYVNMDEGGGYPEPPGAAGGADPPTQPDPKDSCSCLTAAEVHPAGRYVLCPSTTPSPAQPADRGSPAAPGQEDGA
Sequence of Tyrosine-protein kinase Fer (P16591 whole entry): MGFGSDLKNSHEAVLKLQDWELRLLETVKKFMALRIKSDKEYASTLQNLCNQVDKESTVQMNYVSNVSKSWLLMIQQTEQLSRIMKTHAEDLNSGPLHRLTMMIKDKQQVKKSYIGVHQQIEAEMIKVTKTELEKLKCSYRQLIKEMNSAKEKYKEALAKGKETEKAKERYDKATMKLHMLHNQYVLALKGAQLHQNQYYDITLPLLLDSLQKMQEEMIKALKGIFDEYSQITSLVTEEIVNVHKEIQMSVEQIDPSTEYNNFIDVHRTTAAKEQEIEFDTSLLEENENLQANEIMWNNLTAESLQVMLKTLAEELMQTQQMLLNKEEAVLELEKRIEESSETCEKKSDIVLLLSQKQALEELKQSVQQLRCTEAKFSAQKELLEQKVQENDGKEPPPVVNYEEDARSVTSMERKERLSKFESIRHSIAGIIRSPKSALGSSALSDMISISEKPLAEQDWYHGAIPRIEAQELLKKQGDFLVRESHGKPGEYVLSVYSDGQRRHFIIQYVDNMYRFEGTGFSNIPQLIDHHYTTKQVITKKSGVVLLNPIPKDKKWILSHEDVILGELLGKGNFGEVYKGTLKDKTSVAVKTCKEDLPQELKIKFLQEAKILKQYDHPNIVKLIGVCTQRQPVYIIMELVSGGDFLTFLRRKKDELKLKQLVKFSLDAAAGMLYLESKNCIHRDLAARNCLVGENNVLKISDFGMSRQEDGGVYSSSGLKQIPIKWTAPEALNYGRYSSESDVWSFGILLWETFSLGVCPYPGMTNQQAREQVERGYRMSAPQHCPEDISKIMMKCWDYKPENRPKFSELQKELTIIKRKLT
Sequence of Ribosomal protein S6 kinase beta-1 (P23443 whole entry): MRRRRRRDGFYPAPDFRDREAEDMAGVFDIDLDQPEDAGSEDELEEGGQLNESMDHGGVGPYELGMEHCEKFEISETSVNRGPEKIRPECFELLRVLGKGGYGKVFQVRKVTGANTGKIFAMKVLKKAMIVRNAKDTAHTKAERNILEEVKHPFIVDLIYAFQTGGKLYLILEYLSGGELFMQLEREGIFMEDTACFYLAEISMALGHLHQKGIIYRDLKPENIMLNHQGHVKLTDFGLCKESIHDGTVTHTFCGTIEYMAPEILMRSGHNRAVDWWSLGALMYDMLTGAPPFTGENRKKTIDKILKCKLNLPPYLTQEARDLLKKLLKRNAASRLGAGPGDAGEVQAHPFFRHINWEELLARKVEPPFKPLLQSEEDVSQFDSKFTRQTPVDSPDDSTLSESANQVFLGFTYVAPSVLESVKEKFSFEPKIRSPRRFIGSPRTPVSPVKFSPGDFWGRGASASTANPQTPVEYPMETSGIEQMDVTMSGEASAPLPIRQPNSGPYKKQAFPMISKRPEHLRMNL

`CC(/C=C1\SC(=S)N(NS(=O)(=O)c2ccc(C)cc2)C1=O)=C\c1ccccc1`: the IC50 in experiment [1] was 27.1 µM (active).
As to `CN1CCC(c2c(O)cc(O)c3c(=O)cc(-c4ccccc4Cl)oc23)C(O)C1` (stereo not given), the Ki is 0.501 µM (active) in experiment [2]; > 6.31 µM (inactive) in experiment [3]; > 3.98 µM (inactive) in [4]; 0.316 µM (active) in experiment [5]; 5.01 µM (active) in [6]; > 2 µM (inactive) in experiment [7]. Further, the Ki in experiment [8] is > 2.51 µM (inactive); in [9], > 2 µM (inactive); in [10], > 6.31 µM (inactive); in [11], > 6.31 µM (inactive); in [12] it was > 3.98 µM (inactive); in experiment [13], > 6.31 µM (inactive). Further, the Ki in experiment [14] was > 5.01 µM (inactive); in experiment [15], 1 µM (active); in experiment [16] it was 3.16 µM (active); in experiment [17], > 1.58 µM (inactive); in experiment [18], 5.01 µM (active); in [19], > 2 µM (inactive). Moreover, the Ki in experiment [20] is 1 µM (active); in [21], 1.26 µM (active); in [22], > 7.94 µM (inactive); in experiment [23], > 7.94 µM (inactive); in experiment [24], 5.01 µM (active); in [25], > 1.58 µM (inactive). Also, the Ki in experiment [26] is > 2 µM (inactive); in experiment [27] it was 1.26 µM (active); in experiment [28] it was > 5.01 µM (inactive); in experiment [29], > 7.94 µM (inactive); in experiment [30], > 10 µM (inactive); in experiment [31] it was > 1.58 µM (inactive). Also, the pKi in experiment [6] is recorded as 5.3; in [15], 6.
As for `Cc1ccc(NC2=C(NCCO)C(=O)c3ccccc3C2=O)cc1`, the IC50 in experiment [32] was 65.1 µM (inactive). Also, in [33], the AC50 is 40.3 µM (active).
